Experimental findings from patent US5086049A, “7[4-(5 methyl-2-oxo-1,3-dioxalen-4-yl)methyl 1-piperzinyl]-4-oxo-4H-[1,3]thiazeto[3,2-a]quinoline-3-carboxylic acids” (Nipponshinyaku Co., Ltd., priority 1987, dated 1992) are described below.

For experiment [1], the system named is Bacillus subtilis ATCC 6633. Description: MIC by agar plate dilution method. Format: cell-based. Particulars: ATCC6633, 10^6 CFU/ml, 37° C., 18 hours. Here is the method:
(§1) Test Method: In accordance with a standard method by Japan Chemotherapeutic Society [Chemotherapy, 29(1), pages 76-79, 1981], agar plate dilution method was used and the MIC was measured. Thus, bouillon for measuring sensitivity was used and the bacterial liquid cultured at 37° C. for 18 hours was diluted to an extent of 10^6 CFU/ml using said medium. This was inoculated to an agar medium containing drug for measuring sensitivity using a microplanter, cultured at 37° C. for 18 hours, and MIC was measured. Ofloxacin was used for comparison/control.
(§2) The compound of Example 2 was used as representative of the compounds of the present invention and ofloxacin was used as the Comparison/Control.

Experiment [2] relates to Escherichia coli N1JH JC-2. Description: MIC by agar plate dilution method. Format: cell-based. Here is the method: as §1, §2
Experiment [3] concerns Klebsiella pneumoniae NCTC 9632. Description: MIC by agar plate dilution method. Format: cell-based. The procedure: as §1, §2
Experiment [4] concerns Proteus mirabilis IFO 3849. Description: MIC by agar plate dilution method. The settings on record: IFO3849, 10^6 CFU/ml, 37° C., 18 hours. In kind it is cell-based. Here is the method:
as §1, §2

In experiment [5] the test system is Pseudomonas aeruginosa IFO 3445. The experiment in a line: MIC by agar plate dilution method. In kind it is cell-based. Particulars: IFO3445, 10^6 CFU/ml, 37° C., 18 hours. The procedure: as §1, §2
The subject of experiment [6] is Serratia marcescens IFO 3736. The experiment in a line: MIC by agar plate dilution method. In kind it is cell-based. Particulars: IFO3736, 10^6 CFU/ml, 37° C., 18 hours. The procedure: as §1, §2
Experiment [7] has as its system Shigella flexneri 2a EW-10. Description: MIC by agar plate dilution method. Format: cell-based. The settings on record: 2AEW10, 10^6 CFU/ml, 37° C., 18 hours. Here is the method: as §1, §2
The test system of experiment [8] is Staphylococcus aureus 209-P JC-1. Description: MIC by agar plate dilution method. Format: cell-based. The settings on record: 10^6 CFU/ml, 37° C., 18 hours. The procedure: as §1, §2
Experiment [9] concerns Streptococcus pneumoniae Type I. The experiment in a line: MIC by agar plate dilution method. In kind it is cell-based. The settings on record: 10^6 CFU/ml, 37° C., 18 hours. The procedure:
as §1, §2

The subject of experiment [10] is Streptococcus pyogenes S-23. The experiment in a line: MIC by agar plate dilution method. In kind it is cell-based. Particulars: S23, 10^6 CFU/ml, 37° C., 18 hours. Here is the method: as §1, §2
The subject of experiment [11] is E. coli KC-14. The experiment in a line: Therapeutic effect on infection in mice, E. coli. In kind it is in vivo, ddY strain male mice. The settings on record: E. coli KC-14, 5.1×10^4 CFU/mouse i.p.; drug orally once 2 hours after inoculation; survival after one week, Probit method. The procedure: (§3) Test method: E. coli KC-14 and P. aeruginosa E-2 were suspended in 5% mucin and 0.5 ml of the suspension was injected intraperitoneally to ddY strain male mice (body weight: ca. 20 g; four weeks age; 10 mice per group). The amount of the bacteria inoculated was 5.1×10^4 CFU/mouse for E. coli and 7.5×10^4 CFU/mouse for P. aeruginosa. The drug was given orally once after 2 hours of inoculation and, out of the survival rate after one week, an ED50 was calculated by a Probit method. Ofloxacin was used as the comparison/control.

Experiment [12] concerns P. aeruginosa E-2. The experiment in a line: Therapeutic effect on infection in mice, P. aeruginosa. Format: in vivo, ddY strain male mice. The settings on record: P. aeruginosa E-2, 7.5×10^4 CFU/mouse i.p.; drug orally once 2 hours after inoculation; survival after one week, Probit method. Here is the method: as §3

Values after ≈ are worked out from the molar mass of the structure shown. Like-named read-outs stand apart in the source and are kept apart here.

In the case of `CC1COc2c(N3CCN(C)CC3)c(F)cc3c(=O)c(C(=O)O)cn1c23` (racemic) [Ofloxacin, reference compound], the minimal inhibitory concentration (MIC) in [1] turned out to be 0.1 µg/mL (≈ 0.277 µM); in experiment [2] (N1JHJC2, Escherichia coli N1JH JC-2, 10^6 CFU/ml, 37° C., 18 hours, read-out: MIC) it was 0.1 µg/mL (≈ 0.277 µM); in [3] (NCTC9632, Klebsiella pneumoniae NCTC 9632, 10^6 CFU/ml, 37° C., 18 hours, read-out: MIC), 0.05 µg/mL (≈ 0.138 µM); in [4], 0.39 µg/mL (≈ 1.08 µM); in experiment [5], 1.56 µg/mL (≈ 4.32 µM); in experiment [6], 0.78 µg/mL (≈ 2.16 µM). In addition, the minimal inhibitory concentration (MIC) in experiment [7] worked out at 0.025 µg/mL (≈ 0.0692 µM); in [8], 0.39 µg/mL (≈ 1.08 µM); in [9], 1.56 µg/mL (≈ 4.32 µM); in experiment [10], 1.56 µg/mL (≈ 4.32 µM). Further, the ED50 came to 0.011 mg/mouse in experiment [11] and 0.692 mg/mouse in experiment [12].
In experiment [12], `CCOC(=O)c1c2n(c3cc(N4CCN(Cc5oc(=O)oc5C)CC4)c(F)cc3c1=O)C(C)S2` (stereo not drawn) [Example 1, Ethyl 6-fluoro-1-methyl-7-[4-(5-methyl-2-oxo-1,3-dioxolen-4yl)methyl-1-piperazinyl]-4oxo-4H-[1,3-]thiazeto[3,2-a]quinoline-3-carboxylate] registered an ED50 of 0.354 mg/mouse.
As for `Cc1oc(=O)oc1CN1CCN(c2cc3c(cc2F)c(=O)c(C(=O)O)c2n3C(C)S2)CC1` (stereo not drawn) [Example 2], the MIC in [1] came to 0.05 µg/mL (≈ 0.108 µM); in [2] (Escherichia coli, N1JHJC2, 18 h), 0.0125 µg/mL (≈ 0.0271 µM); in experiment [3] (Klebsiella pneumoniae, NCTC9632, 18 h), 0.0125 µg/mL (≈ 0.0271 µM); in experiment [4], 0.025 µg/mL (≈ 0.0542 µM); in experiment [5], 0.2 µg/mL (≈ 0.433 µM); in experiment [6] it was 0.2 µg/mL (≈ 0.433 µM). The MIC was found to be 0.0125 µg/mL (≈ 0.0271 µM) in experiment [7], 0.1 µg/mL (≈ 0.217 µM) in experiment [8], 0.39 µg/mL (≈ 0.845 µM) in experiment [9] and 0.39 µg/mL (≈ 0.845 µM) in experiment [10]. Also, the ED50 is on record as 0.0078 mg/mouse in [11] and 0.154 mg/mouse in experiment [12].
Regarding `Cc1oc(=O)oc1CN1CCN(c2cc3c(cc2F)c(=O)c(C(=O)O)c2n3C(C)S2)CC1.Cl` (stereo not drawn) [Example 3, 6-Fluoro-1-methyl-7-[4-(5-methyl-2-oxo-1,3-dioxolen-4-yl)methyl-1-piperazinyl]-4-oxo-4H-[1,3]thiazeto[3,2-a]quinoline-3-carboxylic acid hydrochloride], the ED50 in experiment [11] worked out at 0.0078 mg/mouse; in [12] it was 0.125 mg/mouse.
In the same order, the values of `CS(=O)(=O)O.Cc1oc(=O)oc1CN1CCN(c2cc3c(cc2F)c(=O)c(C(=O)O)c2n3C(C)S2)CC1` (stereo not drawn) [Example 4, 6-Fluoro-1-methyl-7-[4-(5-methyl-2-oxo-1,3-dioxolen-4-yl)methyl-1-piperazinyl]-4-oxo-4H-[1,3]thiazeto[3,2-a]quinoline-3-carboxylic acid methanesulfonate] are 0.0078 mg/mouse and 0.125 mg/mouse.
For `Cc1oc(=O)oc1CN1CCN(c2c(F)cc3c(=O)c(C(=O)O)c4n(c3c2F)C(C)S4)CC1` (stereo not drawn) [Example 8, 6,8-Difluoro-1-methyl-7-[4-(5-methyl-2-oxo-1,3-dioxolen-4-yl)methyl-1-piperazinyl]-4-oxo-4-[1,3]-thiazeto[3,2-a]quinoline-3-carboxylic acid] the same measures were 0.0078 mg/mouse and 0.125 mg/mouse.
For `COc1c(N2CCN(Cc3oc(=O)oc3C)CC2)c(F)cc2c(=O)c(C(=O)O)c3n(c12)C(C)S3` (stereo not drawn) [Example 14, 6-Fluoro-8-methoxy-1-methyl-7-[4-(5-methyl-2-oxo-1,3-dioxolen-4-yl)methyl-1-piperazinyl]-4-oxo-4H-[1,3]-thiazeto[3,2-a]quinoline-3-carboxylic acid] the same measures were 0.0152 mg/mouse and 0.427 mg/mouse.

The MIC is the least concentration at which growth counts as inhibited.
